The record followed here is the supplement of paper PMC10307832.

Holding throughout (assay): relative viability (nuclei count vs DMSO), 5 days (fraction); higher = more cells survive
Compound in the test “CAP-232 + Vorinostat”: C[C@H]([C@@H](C(=O)N)NC(=O)[C@@H]1CSSC[C@@H](C(=O)N[C@H](C(=O)N[C@@H](C(=O)N[C@H](C(=O)N1)CCCCN)CC2=CNC3=CC=CC=C32)CC4=CC=C(C=C4)O)NC(=O)[C@@H](CC5=CC=CC=C5)N)O [CAP-232] + O=C(CCCCCCC(=O)Nc1ccccc1)NO [Vorinostat] (partner 1 µM)
Summed up: (§1)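 Cells from lung cancer lines were seeded into 1536-well plates and, one day later, dosed by pin tool. Treatments were either a single drug or a fixed dose of an anchor drug with five library-drug doses (not always all listed) in √10 steps. After 5 days, nuclei were stained in a one-step fixation (final 0.05% Triton X-100, 1% formaldehyde, 1 ug/ml Hoechst) and counted on 4× images, and relative viability is the treated-to-vehicle nuclei ratio, as the median of duplicate plates.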

Compound in the test “CAP-232 + Phenformin”: C[C@H]([C@@H](C(=O)N)NC(=O)[C@@H]1CSSC[C@@H](C(=O)N[C@H](C(=O)N[C@@H](C(=O)N[C@H](C(=O)N1)CCCCN)CC2=CNC3=CC=CC=C32)CC4=CC=C(C=C4)O)NC(=O)[C@@H](CC5=CC=CC=C5)N)O [CAP-232] + N=C(N)NC(=N)NCCc1ccccc1 [Phenformin] (partner 250 µM)
The procedure, abridged: as §1

Compound in the test “CAP-232 + Pictilisib”: C[C@H]([C@@H](C(=O)N)NC(=O)[C@@H]1CSSC[C@@H](C(=O)N[C@H](C(=O)N[C@@H](C(=O)N[C@H](C(=O)N1)CCCCN)CC2=CNC3=CC=CC=C32)CC4=CC=C(C=C4)O)NC(=O)[C@@H](CC5=CC=CC=C5)N)O [CAP-232] + CS(=O)(=O)N1CCN(Cc2cc3nc(-c4cccc5[nH]ncc45)nc(N4CCOCC4)c3s2)CC1 [Pictilisib] (partner 1 µM)
Summed up: as §1

Compound in the test “CAP-232 + Tozasertib”: C[C@H]([C@@H](C(=O)N)NC(=O)[C@@H]1CSSC[C@@H](C(=O)N[C@H](C(=O)N[C@@H](C(=O)N[C@H](C(=O)N1)CCCCN)CC2=CNC3=CC=CC=C32)CC4=CC=C(C=C4)O)NC(=O)[C@@H](CC5=CC=CC=C5)N)O [CAP-232] + Cc1cc(Nc2cc(N3CCN(C)CC3)nc(Sc3ccc(NC(=O)C4CC4)cc3)n2)n[nH]1 [Tozasertib] (partner 0.1 µM)
The procedure, abridged: as §1

Compound in the test “CAP-232 + Alpelisib”: C[C@H]([C@@H](C(=O)N)NC(=O)[C@@H]1CSSC[C@@H](C(=O)N[C@H](C(=O)N[C@@H](C(=O)N[C@H](C(=O)N1)CCCCN)CC2=CNC3=CC=CC=C32)CC4=CC=C(C=C4)O)NC(=O)[C@@H](CC5=CC=CC=C5)N)O [CAP-232] + Cc1nc(NC(=O)N2CCC[C@H]2C(N)=O)sc1-c1ccnc(C(C)(C)C(F)(F)F)c1 [Alpelisib] (partner 2 µM)
The procedure, abridged: as §1

As to NCI-H460, the relative viability in the test with CAP-232 + Vorinostat (first compound 0.4 µM) was found to be 1.01; with CAP-232 + Vorinostat (first compound 1.265 µM), 0.865; in the test with CAP-232 + Vorinostat (first compound 4 µM), 1.1; with CAP-232 + Vorinostat (first compound 12.65 µM) it was 0.363; with CAP-232 + Phenformin (first compound 0.4 µM) it was 0.634; with CAP-232 + Phenformin (first compound 1.265 µM) it was 0.529. Also, the relative viability with CAP-232 + Phenformin (first compound 4 µM) came to 0.567; with CAP-232 + Phenformin (first compound 12.65 µM) it was 0.307; in the test with CAP-232 + Pictilisib (first compound 0.4 µM), 0.328; in the test with CAP-232 + Pictilisib (first compound 1.265 µM), 0.306; with CAP-232 + Pictilisib (first compound 4 µM), 0.433; in the test with CAP-232 + Pictilisib (first compound 12.65 µM) it was 0.349. In addition, the relative viability in the test with CAP-232 + Tozasertib (first compound 0.4 µM) came out at 0.487; in the test with CAP-232 + Tozasertib (first compound 1.265 µM) it was 0.463; in the test with CAP-232 + Tozasertib (first compound 4 µM), 0.634; with CAP-232 + Tozasertib (first compound 12.65 µM), 0.396; in the test with CAP-232 + Alpelisib (first compound 0.4 µM) it was 0.512; with CAP-232 + Alpelisib (first compound 1.265 µM), 0.541. Also, the relative viability is 0.595 with CAP-232 + Alpelisib (first compound 4 µM) and 0.211 in the test with CAP-232 + Alpelisib (first compound 12.65 µM).
As for NCI-H520, the relative viability with CAP-232 + Vorinostat (first compound 0.4 µM) was 0.71; with CAP-232 + Vorinostat (first compound 1.265 µM) it was 0.695; with CAP-232 + Vorinostat (first compound 4 µM), 0.75; with CAP-232 + Vorinostat (first compound 12.65 µM), 0.577; with CAP-232 + Phenformin (first compound 0.4 µM) it was 0.529; with CAP-232 + Phenformin (first compound 1.265 µM), 0.52. Besides, the relative viability with CAP-232 + Phenformin (first compound 4 µM) amounted to 0.619; with CAP-232 + Phenformin (first compound 12.65 µM) it was 0.461; in the test with CAP-232 + Pictilisib (first compound 0.4 µM) it was 0.379; in the test with CAP-232 + Pictilisib (first compound 1.265 µM), 0.315; with CAP-232 + Pictilisib (first compound 4 µM), 0.314; in the test with CAP-232 + Pictilisib (first compound 12.65 µM), 0.25. The relative viability was determined as 0.439 in the test with CAP-232 + Tozasertib (first compound 0.4 µM); 0.405 with CAP-232 + Tozasertib (first compound 1.265 µM); 0.395 with CAP-232 + Tozasertib (first compound 4 µM); 0.354 in the test with CAP-232 + Tozasertib (first compound 12.65 µM); 0.945 in the test with CAP-232 + Alpelisib (first compound 0.4 µM); 0.93 in the test with CAP-232 + Alpelisib (first compound 1.265 µM). The results for the relative viability in the test with CAP-232 + Alpelisib (first compound 4 µM) and in the test with CAP-232 + Alpelisib (first compound 12.65 µM) were 1.08 and 0.568, respectively.
On to NCI-H596, for which the relative viability is 0.666 with CAP-232 + Vorinostat (first compound 0.4 µM); 0.613 with CAP-232 + Vorinostat (first compound 1.265 µM); 0.582 with CAP-232 + Vorinostat (first compound 4 µM); 0.53 with CAP-232 + Vorinostat (first compound 12.65 µM); 0.679 with CAP-232 + Phenformin (first compound 0.4 µM); 0.604 with CAP-232 + Phenformin (first compound 1.265 µM). Also, the relative viability with CAP-232 + Phenformin (first compound 4 µM) stood at 0.899; in the test with CAP-232 + Phenformin (first compound 12.65 µM), 0.653; with CAP-232 + Pictilisib (first compound 0.4 µM), 0.421; in the test with CAP-232 + Pictilisib (first compound 1.265 µM) it was 0.388; with CAP-232 + Pictilisib (first compound 4 µM), 0.36; with CAP-232 + Pictilisib (first compound 12.65 µM), 0.328. The relative viability with CAP-232 + Tozasertib (first compound 0.4 µM) is 0.962; with CAP-232 + Tozasertib (first compound 1.265 µM), 1.04; in the test with CAP-232 + Tozasertib (first compound 4 µM) it was 0.886; with CAP-232 + Tozasertib (first compound 12.65 µM), 0.821; with CAP-232 + Alpelisib (first compound 0.4 µM) it was 0.558; with CAP-232 + Alpelisib (first compound 1.265 µM), 0.512. For the same cell line, the relative viability with CAP-232 + Alpelisib (first compound 4 µM) was 0.497; in the test with CAP-232 + Alpelisib (first compound 12.65 µM) it was 0.507.
Take NCI-H647: the relative viability in the test with CAP-232 + Vorinostat (first compound 0.4 µM) was found to be 0.541; with CAP-232 + Vorinostat (first compound 1.265 µM), 0.593; with CAP-232 + Vorinostat (first compound 4 µM), 0.602; with CAP-232 + Vorinostat (first compound 12.65 µM), 0.414; with CAP-232 + Phenformin (first compound 0.4 µM) it was 0.434; in the test with CAP-232 + Phenformin (first compound 1.265 µM), 0.561. Besides, the relative viability with CAP-232 + Phenformin (first compound 4 µM) is 0.637; in the test with CAP-232 + Phenformin (first compound 12.65 µM) it was 0.401; in the test with CAP-232 + Pictilisib (first compound 0.4 µM), 0.431; with CAP-232 + Pictilisib (first compound 1.265 µM) it was 0.354; in the test with CAP-232 + Pictilisib (first compound 4 µM), 0.482; with CAP-232 + Pictilisib (first compound 12.65 µM) it was 0.365. Further, the relative viability with CAP-232 + Tozasertib (first compound 0.4 µM) is 0.216; with CAP-232 + Tozasertib (first compound 1.265 µM), 0.259; with CAP-232 + Tozasertib (first compound 4 µM), 0.269; in the test with CAP-232 + Tozasertib (first compound 12.65 µM), 0.276; in the test with CAP-232 + Alpelisib (first compound 0.4 µM) it was 1.18; with CAP-232 + Alpelisib (first compound 1.265 µM) it was 1.16. Further, the values for the relative viability in the test with CAP-232 + Alpelisib (first compound 4 µM) and in the test with CAP-232 + Alpelisib (first compound 12.65 µM) were 1.37 and 0.761, respectively.
For the cell line NCI-H650, the relative viability in the test with CAP-232 + Vorinostat (first compound 0.4 µM) was determined as 0.505; with CAP-232 + Vorinostat (first compound 1.265 µM) it was 0.423; with CAP-232 + Vorinostat (first compound 4 µM), 0.364; with CAP-232 + Vorinostat (first compound 12.65 µM) it was 0.457; with CAP-232 + Phenformin (first compound 0.4 µM) it was 0.443; with CAP-232 + Phenformin (first compound 1.265 µM), 0.416. The relative viability with CAP-232 + Phenformin (first compound 4 µM) was 0.472; in the test with CAP-232 + Phenformin (first compound 12.65 µM), 0.413; in the test with CAP-232 + Pictilisib (first compound 0.4 µM), 0.84; with CAP-232 + Pictilisib (first compound 1.265 µM) it was 0.821; with CAP-232 + Pictilisib (first compound 4 µM), 1.06; with CAP-232 + Pictilisib (first compound 12.65 µM), 0.564. Besides, the relative viability turned out to be 0.749 with CAP-232 + Tozasertib (first compound 0.4 µM); 0.747 with CAP-232 + Tozasertib (first compound 1.265 µM); 0.713 with CAP-232 + Tozasertib (first compound 4 µM); 0.7 with CAP-232 + Tozasertib (first compound 12.65 µM); 0.997 in the test with CAP-232 + Alpelisib (first compound 0.4 µM); 1.3 in the test with CAP-232 + Alpelisib (first compound 1.265 µM). Also, the relative viability in the test with CAP-232 + Alpelisib (first compound 4 µM) was 0.997; with CAP-232 + Alpelisib (first compound 12.65 µM), 0.825.
NCI-H661: the relative viability was determined as 0.848 with CAP-232 + Vorinostat (first compound 0.4 µM); 0.848 in the test with CAP-232 + Vorinostat (first compound 1.265 µM); 0.875 in the test with CAP-232 + Vorinostat (first compound 4 µM); 0.752 in the test with CAP-232 + Vorinostat (first compound 12.65 µM); 0.262 with CAP-232 + Phenformin (first compound 0.4 µM); 0.268 with CAP-232 + Phenformin (first compound 1.265 µM). Besides, the relative viability with CAP-232 + Phenformin (first compound 4 µM) amounted to 0.278; with CAP-232 + Phenformin (first compound 12.65 µM) it was 0.227; in the test with CAP-232 + Pictilisib (first compound 0.4 µM), 0.402; in the test with CAP-232 + Pictilisib (first compound 1.265 µM), 0.377; with CAP-232 + Pictilisib (first compound 4 µM), 0.416; in the test with CAP-232 + Pictilisib (first compound 12.65 µM), 0.389. Besides, the relative viability with CAP-232 + Tozasertib (first compound 0.4 µM) stood at 0.367; in the test with CAP-232 + Tozasertib (first compound 1.265 µM), 0.372; with CAP-232 + Tozasertib (first compound 4 µM) it was 0.347; with CAP-232 + Tozasertib (first compound 12.65 µM) it was 0.329; with CAP-232 + Alpelisib (first compound 0.4 µM) it was 0.594; in the test with CAP-232 + Alpelisib (first compound 1.265 µM), 0.382. The relative viability is 0.913 with CAP-232 + Alpelisib (first compound 4 µM) and 0.596 with CAP-232 + Alpelisib (first compound 12.65 µM).
NCI-H727: the relative viability with CAP-232 + Vorinostat (first compound 0.4 µM) stood at 1.19; with CAP-232 + Vorinostat (first compound 1.265 µM) it was 1.08; in the test with CAP-232 + Vorinostat (first compound 4 µM), 1.39; with CAP-232 + Vorinostat (first compound 12.65 µM), 1.23; in the test with CAP-232 + Phenformin (first compound 0.4 µM), 0.511; with CAP-232 + Phenformin (first compound 1.265 µM), 0.488. Moreover, the relative viability with CAP-232 + Phenformin (first compound 4 µM) was 0.536; with CAP-232 + Phenformin (first compound 12.65 µM), 0.533; in the test with CAP-232 + Pictilisib (first compound 1.265 µM) it was 0.346; with CAP-232 + Pictilisib (first compound 4 µM), 0.361; in the test with CAP-232 + Pictilisib (first compound 12.65 µM), 0.28; with CAP-232 + Tozasertib (first compound 0.4 µM), 0.491. Moreover, the relative viability amounted to 0.525 with CAP-232 + Tozasertib (first compound 1.265 µM); 0.698 in the test with CAP-232 + Tozasertib (first compound 4 µM); 0.499 with CAP-232 + Tozasertib (first compound 12.65 µM); 0.59 with CAP-232 + Alpelisib (first compound 1.265 µM); 0.633 with CAP-232 + Alpelisib (first compound 4 µM); 0.59 with CAP-232 + Alpelisib (first compound 12.65 µM).
